Test results published in ChEMBL document CHEMBL1949579, “2-Arylbenzofuran, flavonoid, and tyrosinase inhibitory constituents of Morus yunnanensis” (J Nat Prod, 2012).

molecular target: T1, Tyrosinase (Agaricus bisporus, UniProt O42713); assay: Inhibition of mushroom tyrosinase assessed as oxidation of L-dopa by spectrophotometric analysis
T1 sequence (O42713 whole entry): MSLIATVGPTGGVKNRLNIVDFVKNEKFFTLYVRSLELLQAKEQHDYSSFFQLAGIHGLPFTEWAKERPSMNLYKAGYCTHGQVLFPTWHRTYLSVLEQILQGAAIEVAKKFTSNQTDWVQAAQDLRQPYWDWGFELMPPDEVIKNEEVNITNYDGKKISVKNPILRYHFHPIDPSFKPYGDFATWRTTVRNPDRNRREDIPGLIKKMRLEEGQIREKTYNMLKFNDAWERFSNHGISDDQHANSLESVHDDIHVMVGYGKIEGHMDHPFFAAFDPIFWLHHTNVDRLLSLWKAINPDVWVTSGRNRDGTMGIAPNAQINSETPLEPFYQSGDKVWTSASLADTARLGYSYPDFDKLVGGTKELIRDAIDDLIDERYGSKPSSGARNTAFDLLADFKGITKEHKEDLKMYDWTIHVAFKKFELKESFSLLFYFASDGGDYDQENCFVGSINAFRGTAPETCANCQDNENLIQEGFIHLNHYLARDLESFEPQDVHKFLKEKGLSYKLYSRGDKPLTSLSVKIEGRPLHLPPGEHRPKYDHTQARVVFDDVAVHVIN

IC50 [µM]	Structure (SMILES)
1.43	COc1ccc2c(c1C/C=C(\C)CO)O[C@H](c1ccc(O)cc1O)CC2 [MORUSYUNNANSINS E]
0.15	CC(C)=CCc1c(O)ccc2c1O[C@H](c1ccc(O)cc1O)CC2 [MORUSYUNNANSINS F]
0.12	COc1ccc2c(c1CCO)O[C@@H](c1ccc(O)cc1O)CC2

molecular target: T2, Tyrosinase (Agaricus bisporus) (UniProt O42713); assay: Inhibition of mushroom tyrosinase assessed as oxidation of L-dopa at 25 uM by spectrophotometric analysis
T2 sequence (whole entry): T1 sequence (O42713 whole entry)

inhibition [%]	Structure (SMILES)
< 50	COc1ccc(CCC(c2ccc(O)cc2O)c2cc([C@H]3CCc4ccc(OC)c(CC=C(C)C)c4O3)c(O)cc2O)c(O)c1CC=C(C)C (some centres not stated)
< 50	CC(C)=CCc1c(O)ccc2c1O[C@H](c1ccc(O)cc1)CC2
< 50	COc1ccc(CCC(c2ccc(O)cc2O)c2cc([C@@H]3CCc4ccc(OC)c(CC=C(C)C)c4O3)c(O)cc2O)c(O)c1CC=C(C)C (some centres not stated)
< 50	COc1ccc([C@@H]2CCc3ccc(O)c(CC=C(C)C)c3O2)c(O)c1
